Test results as given in patent US6413974B1, “6,9,-disubstituted 2-[trans-(4-aminocyclohexyl) amino] purines” (Aventis Pharmaceuticals Inc., priority 1998, dated 2002).
Several values for one entry are separate records, joined by “and”; a condition that tells them apart may be missing. Identical values can stand only once. Counter-ions that a name gives are not always drawn. Like-named read-outs stand apart in the source and are kept apart here.

How the values were obtained:
cdk2/cyclin E = target: T1, cdk2/cyclin E (Homo sapiens, UniProt P24941); assay: Cyclin-Dependent Kinase 2 Assay (cdk-2 inhibition); type: biochemical; settings: GST-Rb substrate, 30 min at 30° C.
T1 construct: made in house; host or cells: insect cells (baculovirus co-infection)
Summary of the method: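 GST-Rb bound to glutathione-Sepharose beads (0.5 μg/well) as substrate in 50 mM HEPES pH 7.5, 10 mM MgCl2, 1 mM EGTA. Recombinant cdk2/cyclin E at 0.1 μg per 100 μl, 30 min at 30 °C. Reaction stopped by filtration, TNEN washes, scintillation counting.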

HT-29 = assay: In vitro tumor cell proliferation, HT-29; type: cell-based, human; settings: read-out: In vitro Tumor Cell Proliferation (IC50, μM) Colon HT-29 (converted)
Summary of the method: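 HT-29 human colon adenocarcinoma cells plated overnight at 37° C., then exposed to drug for 3 days, medium with fresh drug replaced for a further 4 days. Cells fixed with 10% TCA and stained with 0.4% sulforhodamine B; alternatively, CyQUANT read after 3 days of drug exposure.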

A549 = assay: In vitro tumor cell proliferation, A549; type: cell-based, human; settings: read-out: In vitro Tumor Cell Proliferation (IC50, μM) Lung A549
Summary of the method: (§1)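 Cells seeded overnight at 37° C, then exposed to drug 3 days, medium and drug renewed, plus 4 more days; TCA-fixed and sulforhodamine B stained. Alternatively CyQUANT read-out after 3 days' drug exposure, plates frozen at −80° C.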

MCF-7 = assay: In vitro tumor cell proliferation, MCF-7; type: cell-based, human; settings: read-out: In vitro Tumor Cell Proliferation (IC50, μM) Breast MCF-7
Description: (§2) The proliferation of tumor cells was measured using a sulforhodamine B assay as described in Skehan, P., et al., J. Natl. Cancer Inst. […] Tumor cells were harvested with trypsin-EDTA, cells that excluded trypan blue were counted, added to 96-well plates and incubated overnight at 37° C. Drug was added to the wells following dilution in culture medium. Three days later, the medium was removed and replenished with medium containing fresh drug and incubated an additional 4 days. The cells were then fixed with 0.1 ml 10% trichloroacetic acid for 60 min at 4° C. The plates were rinsed five times with tap water, air-dried and stained for 30 min with 0.4% sulforhodamine B in 1% acetic acid and air-dried.
(§3) Alternatively, the CyQUANT cell proliferation assay was used to quantify tumor cell proliferation. Tumor cells were harvested with trypsin-EDTA, cells that excluded trypan blue were counted, added to 96-well plates and incubated overnight at 37° C. Drug was added to the wells following dilution in culture medium. Three days later the medium was removed and the plates frozen at −80° C. for at least 30 minutes.
MCF7 is a human breast adenocarcinoma, hormone-dependent (HTB 22);

MDA-MB-231 = assay: In vitro tumor cell proliferation, MDA-MB-231; type: cell-based, human; settings: read-out: In vitro Tumor Cell Proliferation (IC50, μM) Breast MDA-MB-231
Summary of the method: as §1

DU 145 = assay: In vitro tumor cell proliferation, DU 145; type: cell-based, human
Summary of the method: as §1

HCT-15 = assay: In vitro tumor cell proliferation, HCT-15; type: cell-based, human; settings: read-out: In vitro Tumor Cell Proliferation (IC50, μM) Colon HCT-15
Description: as §2, §3

DMS-114 = assay: In vitro tumor cell proliferation, DMS-114; type: cell-based, human; settings: read-out: In vitro Tumor Cell Proliferation (IC50, μM) Lung DMS-114
Summary of the method: as §1

cdk4/cyclin D1 = target: T2, cdk4/cyclin D1 (Homo sapiens, UniProt P11802); assay: Cyclin-dependent kinase 4 Assay; type: biochemical; settings: cdk4/cyclin D1, GST-Rb substrate, 10 μM ATP, 30 min at 37° C.; read-out: CDK4 Inhibition IC50
T2 construct: made in house; host or cells: Sf9 insect cells (Bac-to-Bac baculovirus, pFastBac)
T2 sequence (P11802 whole entry): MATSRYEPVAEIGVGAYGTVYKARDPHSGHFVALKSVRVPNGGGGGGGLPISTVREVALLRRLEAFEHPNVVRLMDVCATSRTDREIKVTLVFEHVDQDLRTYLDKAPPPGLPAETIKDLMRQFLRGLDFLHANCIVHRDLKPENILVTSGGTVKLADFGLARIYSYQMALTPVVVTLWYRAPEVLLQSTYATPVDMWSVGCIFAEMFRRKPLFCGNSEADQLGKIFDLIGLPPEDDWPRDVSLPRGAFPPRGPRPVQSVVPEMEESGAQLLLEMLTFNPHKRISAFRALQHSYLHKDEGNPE
T2 sequence (P24385 whole entry partner): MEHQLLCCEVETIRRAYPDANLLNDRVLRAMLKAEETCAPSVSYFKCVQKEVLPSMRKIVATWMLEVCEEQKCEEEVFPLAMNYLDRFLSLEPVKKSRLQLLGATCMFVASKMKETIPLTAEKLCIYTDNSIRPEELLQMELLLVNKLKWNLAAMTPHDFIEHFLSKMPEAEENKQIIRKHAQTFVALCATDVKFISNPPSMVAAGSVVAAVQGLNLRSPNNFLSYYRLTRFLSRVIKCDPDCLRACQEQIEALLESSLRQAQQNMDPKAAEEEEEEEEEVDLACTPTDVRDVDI
Summary of the method: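 Insect-cell lysate of coexpressed human cdk4/cyclin D1 (0.1 μg) phosphorylated bead-bound GST-Rb (0.5 μg) in 50 mM HEPES pH 7.5, 10 mM MgCl2, 1 mM EGTA for 30 min at 37 °C. Filters were washed with TNEN and scintillation-counted; IC50 values derived.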

PC-3 = assay: In vitro tumor cell proliferation, PC-3; type: cell-based, human; settings: read-out: In vitro Tumor Cell Proliferation (IC50, μM) Prostate PC-3
Summary of the method: as §1

[1] = Homo sapiens, HT-29, values without *
[2] = values without *, dihydrochloride
[3] = Homo sapiens, A549, values without *
[4] = Homo sapiens, MCF7, values without *
[5] = Homo sapiens, MDA-MB-231, values without *
[6] = Homo sapiens, DU-145, values without *, read-out: In vitro Tumor Cell Proliferation (IC50, μM) Prostate DUI45
[7] = values without *, dihydrochloride, read-out: In vitro Tumor Cell Proliferation (IC50, μM) Prostate DUI45
[8] = Homo sapiens, HCT-15, values without *
[9] = Homo sapiens, DMS-114, values without *
[10] = Homo sapiens, PC-3, values without *

Structure (SMILES)	IC50 (cdk2/cyclin E)	IC50 (HT-29; [1])	IC50 (HT-29; [2])	IC50 (A549; [3])	IC50 (A549; [2])	IC50 (MCF-7; [4])	IC50 (MCF-7; [2])	IC50 (MDA-MB-231; [5])	IC50 (MDA-MB-231; [2])	IC50 (DU 145; [6])	IC50 (DU 145; [7])	IC50 (HCT-15; [8])	IC50 (HCT-15; [2])	IC50 (DMS-114; [9])	IC50 (DMS-114; [2])	IC50 (cdk4/cyclin D1)	IC50 (PC-3; [10])	IC50 (PC-3; [2])	IC50 (DU 145; Homo sapiens, DU-145, read-out: In vitro Tumor Cell Proliferation (IC50, μM) Prostate DUI45, values without *)	IC50 (DU 145; read-out: In vitro Tumor Cell Proliferation (IC50, μM) Prostate DUI45, values without *, dihydrochloride)
N[C@H]1CC[C@H](Nc2nc(NCC3CCCCO3)c3ncn(C4CCCC4)c3n2)CC1 (relative stereo) [Example 30, 2-[Trans-(4-aminocyclohexyl)amino]-6-[(2-tetrahydropyranyl)methylamino]-9-cyclopentylpurine dihydrochloride]	0.126 µM	5.3 µM	7.9 µM	2.5 µM	3.1 µM	2.5 µM	3.1 µM	6.4 µM	8.6 µM	3.3 µM	4 µM	21 µM	22 µM	2.9 µM	3.7 µM	0.6 µM	1.9 µM	2.3 µM		
N[C@H]1CC[C@H](Nc2nc(NCc3cccc(I)c3)c3ncn(C4CCCC4)c3n2)CC1 [Example 1, 2-[Trans-(4-aminocyclohexyl)amino]-6-(3-iodobenzylamino)-9-cyclopentylpurine dihydrochloride]	0.05 µM and 0.07 µM and 0.085 µM and 0.037 µM and 0.055 µM and 0.065 µM	0.9 µM	1 µM and 1.6 µM	1.1 µM	1 µM	0.7 µM	0.6 µM	1.1 µM	0.8 µM			2.2 µM	1.9 µM	1.2 µM	0.9 µM	2 µM	1.9 µM	1.1 µM and 1.2 µM	2 µM	1.6 µM and 1.2 µM
CCCCNc1nc(N[C@H]2CC[C@H](N)CC2)nc2c1ncn2C1CCCC1 [Example 3, 2-[Trans-(4-aminocylcohexyl)amino]-6-(butylamino)-9-cyclopentylpurine dihydrochloride]	0.033 µM and 0.017 µM	0.92 µM	1.5 µM	0.6 µM	0.63 µM	0.59 µM	0.81 µM	0.95 µM	1.2 µM	0.54 µM	0.6 µM	3.9 µM	3.6 µM	0.49 µM	0.73 µM	0.39 µM and 0.66 µM	0.37 µM			
N[C@H]1CC[C@H](Nc2nc(NCc3ccc(Cl)c(Cl)c3)c3ncn(C4CCCC4)c3n2)CC1 [Example 10, 2-[Trans-(4-aminocyclohexyl)amino]-6-[(3,4-dichlorobenzyl)amino]-9-cyclopentylpurine dihydrochloride]	0.14 µM	1.6 µM		1.7 µM	0.98 µM	1.1 µM	1.8 µM	1.2 µM	1.7 µM	0.97 µM	1.8 µM	1.9 µM		1.5 µM		0.19 µM and 0.3 µM	0.97 µM	0.79 µM		
C[C@@H](Nc1nc(NC2CCC(N)CC2)nc2c1ncn2C1CCCC1)c1ccccc1 (stereo partly drawn) [Example 16, (R)-2-[Trans-(4-aminocyclohexyl)amino]-6-[(α-methylbenzylamino]-9-cyclopentylpurinedihydrochloride]	0.72 µM	6.3 µM	5.1 µM	6.4 µM	5.8 µM	4.1 µM	2.5 µM	5.9 µM	4.4 µM	6.2 µM	5 µM	9.4 µM	7.8 µM	7.4 µM	5.1 µM	11 µM and 6.7 µM	5 µM	2.8 µM		
CC(C)n1cnc2c(NCC3CC3)nc(N[C@H]3CC[C@H](N)CC3)nc21 [Example 32, 2-[Trans-(4-aminocyclohexyl)amino]-6-[(cyclopropyl)methylamino]-9-(2-propyl)purine dihydrochloride]	0.21 µM and 0.096 µM		11 µM		10 µM	9.3 µM	5.3 µM	16 µM	8.1 µM	17 µM	10 µM	> 20 µM	24 µM				9.7 µM	6.9 µM		
N[C@H]1CC[C@H](Nc2nc(NCc3ccc(Cl)cc3F)c3ncn(C4CCCC4)c3n2)CC1 [Example 40, 2-[Trans-(4-aminocyclohexyl)amino]-6-[(4-chloro-2-fluorobenzyl)amino]-9-cyclopentylpurine dihydrochloride]	0.19 µM	1.6 µM	3.2 µM	2.01 µM	3.6 µM	1.7 µM	3.3 µM	3.1 µM	3.5 µM	2 µM	3.5 µM	4.2 µM	3.6 µM	2.3 µM	2 µM	3.1 µM and 1 µM				
N[C@H]1CC[C@H](Nc2nc(NCc3ccccc3)c3ncn(C4CCCC4)c3n2)CC1 [Example 47, 2-[Trans-(4-aminocyclohexyl)amino]-6-[benzylamino]-9-cyclopentylpurine dihydrochloride]		2.2 µM	2.7 µM	1.7 µM		1 µM	1.7 µM					5.5 µM	6.1 µM		1.3 µM		0.93 µM	1.3 µM		
N[C@H]1CC[C@H](Nc2nc(NCc3ccc(F)cc3)c3ncn(C4CCCC4)c3n2)CC1 [Example 50, 2-[Trans-(4-aminocyclohexyl)amino]-6-[(4-fluorobenzyl)amino]-9-cyclopentylpurine dihydrochloride]	0.094 µM	4 µM	4.8 µM			1.9 µM	3.3 µM	3.2 µM	4.5 µM	1.9 µM	3.3 µM	7.4 µM	7.7 µM	3.7 µM	2.4 µM	7.7 µM and 3.1 µM	2 µM	2.3 µM		
